Patent US20160030499A1, “Adaptogenic Compositions And Method For Production Thereof” (Rubikon Ltd., priority 2014, published 2016)

Test: Storage stability of quantitated schisandrin (HPLC)
Assay type: physicochemical
Source text: A high performance liquid chromatography (HPLC) method was developed to quantitate the schisandrin compound contained in the Schisandra chinensis extract. Schisandrin (≧98%) obtained from Sigma-Aldrich was used as a control. The content of the schisandrin compound in the Schisandra chinensis seed oil extracts ranged from about 4.2 to 4.9% depending on the extraction for example, prior to standardization.
A High-performance liquid chromatography method has been developed to quantify the schisandrin in the extract:
Chromatographic Conditions: • Column: Agilent Zorbax Eclipse XDB-C 18, 150 mm length and 4.6 mm internal diameter filled with octadecylsilyl silica gel, 5 micron particle size; • Flow rate: 1 ml/min; • Detection at wavelength: 250 nm; • Volume of injection sample: 10 μl; • Column temperature: 25° C.

Storage stability of quantitated amount of schisandrin (12 months, 30 degrees Celsius and 65% relative humidity): stable and unchanged
Storage stability of quantitated amount of schisandrin (24 months, 25 degrees Celsius and 60% relative humidity): stable and unchanged
Storage stability in other studies using the formulation tested in Example 1 (conditions not stated): stable for at least or about one year
Storage stability of quantitated amount of schisandrin (six months, 40 degrees Celsius and 75% relative humidity): stable and unchanged
SMILES: COc1cc2c(c(OC)c1OC)-c1c(cc(OC)c(OC)c1OC)C[C@](C)(O)[C@@H](C)C2 [schisandrin compound, schisandrin]
